Results on 14 molecules are retold here after US20200064333A1, “ECM COMPOSITION, TUMOR MICROENVIRONMENT PLATFORM AND METHODS THEREOF” (MITRA RXDX INDIA PRIVATE LIMITED, priority 2011, published 2020).

In assay [1] the test system is Breast Cancer patient tumor tissue. As to the kind of experiment: "Clinical Response Predictor" explant analysis (M-score), Breast cancer. Type of assay: cell-based, human. More on the design: key: 0-100 composite M-score from proprietary algorithm. The text has this:
“Clinical Response Predictor” is a patient segregation tool for matching drugs to patients and patients to the drugs in Oncology. “Clinical Response Predictor” explant model is a personalized functional assay that helps predict the response of the patient under investigation to a set of approved drugs for his/her type of cancer. This is done using fresh patient tumor tissue from solid cancers in a specially coated 96/384 well plate. The plates are coated with specific set of Extra Cellular Matix. Further, patient derived autologous ligands are added to the culture. Angiogenic factors are added to maintain tumor vasculature. In case of immunomodulator drugs, autologus immune cells are added to the culture. In the case of haematological malignancies, patient plasma is cultured in the 96/384 well format. The test is carried out in multiplicates to take into account the heterogeneous nature of cancer. “Clinical Response Predictor” results are measured by both kinetic as well as end-point assays. Cell Viability, Cell death, Cell proliferation, cell metabolism, senescence, tumor morphology are some of the parameters assessed. Each of these parameters is measured by more than one assay. For e.g.: Cell Viability is measured by WST, ATP uptake and Glucose uptake assays. Cell Proliferation and Metabolism is measured by Ki67, PCNA (proliferating nuclear cell antigen), ATP/ADP ratio and Glucose uptake. Cell death is assessed by LDH, Activated Caspase 3, Activated Caspase 8 & Nitric Oxide Synthase and TUNEL. Tumor morphology is assessed by H&E to look at the tumor cell content, size of the tumor cells, ratio of viable cells/dead cells, ratio of tumor cells/normal cells, and tumor/macrophage ratio, nuclear size and density and integrity, apoptotic bodies and mitotic figures. Results from each of the assays are expressed in numeric form and is converted using a proprietary algorithm into a single 0-100 metric called “M-score”.
Alternatively, when the tumor source is a xenograft, tumor from mice is excised and further subjected to explant analysis as described below. In another embodiment, the tumor is obtained and is implanted into the mice, thereafter it is allowed to grow, then excised and then subjected to the instant “Clinical Response Predictor” analysis. Post obtaining the, tissue sample, it is divided for obtaining various inputs from a) explant assay, b) Histology based assays like IHC (immunohistochemistry)/H&E, and c) efficacy analysis from primary tumor derived xenografts. • A) Tissue sample given for explant analysis is sliced using Leica Vibratome to generate sections of about 100-3000 μm thickness. These sections are cultured in plates coated with the cancer type specific ECM composition in quadruplicate with media containing autologous sera and also various drugs optionally, for a period of about 48-96 hours. Media with drug and enriched with serum/plasma/PBMCs/serum derived ligands is changed every 24 hours. Post this period MTT/WST analysis is done to assess percent cell viability (end point assay). The supernatant from the media culture is removed every 24 hrs and assessed for proliferation (using ATP and glucose utilization experiments) and cell death (by assessment of lactate dehydrogenase assays and caspase-3 and caspase 8 measurements) to give kinetic response trends. Results are quantified against a drug untreated control. […] The tissue sections both treated and untreated are also given for histological evaluation at the end of the culture period. • B) The tissues given for histological evaluation are assessed for apoptosis by TUNEL and activated caspase 3 assay. Also cell proliferation is assayed for standard proliferation markers like Ki67.

For assay [2], the system named is Head and Neck Cancer patient tumor tissue. As to the kind of experiment: "Clinical Response Predictor" explant analysis (M-score / Sensitivity Index), Head and Neck cancer. The note with it: Right pyriform sinus. The class given is cell-based, human. From the text:
(§1) “Clinical Response Predictor” is a patient segregation tool for matching drugs to patients and patients to the drugs in Oncology. “Clinical Response Predictor” explant model is a personalized functional assay that helps predict the response of the patient under investigation to a set of approved drugs for his/her type of cancer. This is done using fresh patient tumor tissue from solid cancers in a specially coated 96/384 well plate. The plates are coated with specific set of Extra Cellular Matix. Further, patient derived autologous ligands are added to the culture. Angiogenic factors are added to maintain tumor vasculature. In case of immunomodulator drugs, autologus immune cells are added to the culture. […] “Clinical Response Predictor” results are measured by both kinetic as well as end-point assays. Cell Viability, Cell death, Cell proliferation, cell metabolism, senescence, tumor morphology are some of the parameters assessed. Each of these parameters is measured by more than one assay. For e.g.: Cell Viability is measured by WST, ATP uptake and Glucose uptake assays. Cell Proliferation and Metabolism is measured by Ki67, PCNA (proliferating nuclear cell antigen), ATP/ADP ratio and Glucose uptake. Cell death is assessed by LDH, Activated Caspase 3, Activated Caspase 8 & Nitric Oxide Synthase and TUNEL. […]

The test system of assay [3] is Ovary Cancer patient tumor tissue. As to the kind of experiment: "Clinical Response Predictor" explant analysis (M-score), Ovary cancer. Type of assay: cell-based, human.
Source text: as §1

The test system of assay [4] is Pancreatic Cancer patient tumor tissue. As to the kind of experiment: "Clinical Response Predictor" explant analysis (M-score), Pancreatic cancer. The class given is cell-based, human.
Source text: as §1

Assay [5] relates to Liver Cancer patient tumor tissue. As to the kind of experiment: "Clinical Response Predictor" explant analysis (M-score), Liver cancer. Type of assay: cell-based, human. The note with it: for M-Score: liver. From the text: “Clinical Response Predictor” is a patient segregation tool for matching drugs to patients and patients to the drugs in Oncology. “Clinical Response Predictor” explant model is a personalized functional assay that helps predict the response of the patient under investigation to a set of approved drugs for his/her type of cancer. This is done using fresh patient tumor tissue from solid cancers in a specially coated 96/384 well plate. The plates are coated with specific set of Extra Cellular Matix. Further, patient derived autologous ligands are added to the culture. Angiogenic factors are added to maintain tumor vasculature. In case of immunomodulator drugs, autologus immune cells are added to the culture. In the case of haematological malignancies, patient plasma is cultured in the 96/384 well format. The test is carried out in multiplicates to take into account the heterogeneous nature of cancer. “Clinical Response Predictor” results are measured by both kinetic as well as end-point assays. Cell Viability, Cell death, Cell proliferation, cell metabolism, senescence, tumor morphology are some of the parameters assessed. Each of these parameters is measured by more than one assay. For e.g.: Cell Viability is measured by WST, ATP uptake and Glucose uptake assays. Cell Proliferation and Metabolism is measured by Ki67, PCNA (proliferating nuclear cell antigen), ATP/ADP ratio and Glucose uptake. Cell death is assessed by LDH, Activated Caspase 3, Activated Caspase 8 & Nitric Oxide Synthase and TUNEL. Tumor morphology is assessed by H&E to look at the tumor cell content, size of the tumor cells, ratio of viable cells/dead cells, ratio of tumor cells/normal cells, and tumor/macrophage ratio, nuclear size and density and integrity, apoptotic bodies and mitotic figures. Results from each of the assays are expressed in numeric form and is converted using a proprietary algorithm into a single 0-100 metric called “M-score”. […]
Alternatively, when the tumor source is a xenograft, tumor from mice is excised and further subjected to explant analysis as described below. […] The supernatant from the media culture is removed every 24 hrs and assessed for proliferation (using ATP and glucose utilization experiments) and cell death (by assessment of lactate dehydrogenase assays and caspase-3 and caspase 8 measurements) to give kinetic response trends. Results are quantified against a drug untreated control. […] The tissue sections both treated and untreated are also given for histological evaluation at the end of the culture period. • B) The tissues given for histological evaluation are assessed for apoptosis by TUNEL and activated caspase 3 assay. […]

Assay [6] concerns Stomach Cancer patient tumor tissue. As to the kind of experiment: "Clinical Response Predictor" explant analysis (M-score), Stomach cancer. The class given is cell-based, human.
Source text: as §1

The test system of assay [7] is Glioblastoma patient tumor tissue. As to the kind of experiment: "Clinical Response Predictor" explant analysis (M-score), Glioblastoma. The class given is cell-based, human. The note with it: Glioblastoma patient tumor sample, Table 3.
Source text: as §1

Assay [8] has as its system Glioblastoma, Ca-Ovary, Ca-Breast, Ca-Oesophagus, Ca-Pancreas, Ca-Stomach. As to the kind of experiment: Clinical outcome of patients (PETCT or CT), other solid cancers. Type of assay: in vivo, human. The conditions noted are these: evaluated at the end of 6-8 months by PETCT or CT.
Protocol: The figure details that the tumor tissue from the patient is analyzed using explant read out, primary Human tumor xenograft readout and then subjected to a variety of genomic and proteomic profiling accompanied by histological analysis and final correlation with patient clinical data for the chemotherapy regimen. All these input parameters together generate the “Clinical Response Predictor”. The integrated preclinical prediction model is designed based on functional “Clinical Response Predictor” screening platform and M Score prompted by it. Tumor tissues are collected from clinics prior to initiation of treatment. Clinical outcome (PERCIST/RECIST) data are collected before and after completion of 3 cycles of chemotherapy (top of the FIG. 1). Concomitantly, after resection/biopsy tumors are treated with same Standards of Care [SOC] or targeted drugs as that received by patients using an “Clinical Response Predictor” driven explants platform. This leads to the extensive functional and molecular characterization (middle of the FIG. 1). […] The combined data from this platform is integrated for determining the M-score and thereafter correlated with PERCIST/RECIST obtained from patient after 3rd to 6th cycle of therapy.
The “Clinical Response Predictor” outcome (M-score) is then compared with clinical outcome.
Assay [9] relates to Colon Cancer patient tumor tissue. As to the kind of experiment: "Clinical Response Predictor" explant analysis (M-score), Colon / Colorectum cancer. Type of assay: cell-based, human. The text has this: “Clinical Response Predictor” is a patient segregation tool for matching drugs to patients and patients to the drugs in Oncology. “Clinical Response Predictor” explant model is a personalized functional assay that helps predict the response of the patient under investigation to a set of approved drugs for his/her type of cancer. This is done using fresh patient tumor tissue from solid cancers in a specially coated 96/384 well plate. The plates are coated with specific set of Extra Cellular Matix. Further, patient derived autologous ligands are added to the culture. Angiogenic factors are added to maintain tumor vasculature. In case of immunomodulator drugs, autologus immune cells are added to the culture. In the case of haematological malignancies, patient plasma is cultured in the 96/384 well format. The test is carried out in multiplicates to take into account the heterogeneous nature of cancer. “Clinical Response Predictor” results are measured by both kinetic as well as end-point assays. Cell Viability, Cell death, Cell proliferation, cell metabolism, senescence, tumor morphology are some of the parameters assessed. Each of these parameters is measured by more than one assay. For e.g.: Cell Viability is measured by WST, ATP uptake and Glucose uptake assays. Cell Proliferation and Metabolism is measured by Ki67, PCNA (proliferating nuclear cell antigen), ATP/ADP ratio and Glucose uptake. Cell death is assessed by LDH, Activated Caspase 3, Activated Caspase 8 & Nitric Oxide Synthase and TUNEL. Tumor morphology is assessed by H&E to look at the tumor cell content, size of the tumor cells, ratio of viable cells/dead cells, ratio of tumor cells/normal cells, and tumor/macrophage ratio, nuclear size and density and integrity, apoptotic bodies and mitotic figures. […]
Alternatively, when the tumor source is a xenograft, tumor from mice is excised and further subjected to explant analysis as described below. […] Results are quantified against a drug untreated control. […]

Setting [10] is: Example 13.11: patient, Breast Cancer, Regional Lymph node (R) Breast, T3N1M0, metastasis and recc.
Setting [11] is: Example 13.14: patient, T4N0M0, primary.

Turning to `CC(C)(C#N)c1cc(Cn2cncn2)cc(C(C)(C)C#N)c1` [Anastrozole], the M-Score in assay [1] (setting [10]) is 20.
The same measure, in the same setting: for `CCCCCOC(=O)Nc1nc(=O)n([C@@H]2O[C@H](C)[C@@H](O)[C@H]2O)cc1F` [Capecitabine] the value was 26.
In the case of `N.N.[Cl][Pt][Cl]` [Cisplatin], the M-Score in assay [2] (Example 13.1: patient, T3N0M0, primary) is given as 64; in assay [2] (Example 13.2: patient, T3/4N2cM0, metastatic lymph node), 39.
For the molecule `CC(=O)O[C@@]12CO[C@@H]1C[C@H](O)[C@@]1(C)C(=O)[C@H](O)C3=C(C)[C@@H](OC(=O)[C@H](O)[C@@H](NC(=O)OC(C)(C)C)c4ccccc4)C[C@@](O)([C@@H](OC(=O)c4ccccc4)[C@H]21)C3(C)C` [Docetaxel], the M-Score in assay [1] (setting [10]) is 26; in assay [3] (Example 13.10: patient, primary) it was 19; in assay [3] (Example 13.9: patient, metastasis), 26.
In the case of `COc1cccc2c1C(=O)c1c(O)c3c(c(O)c1C2=O)C[C@@](O)(C(=O)CO)C[C@@H]3O[C@H]1C[C@H](N)[C@H](O)[C@H](C)O1` [Doxorubicin], the M-Score in [1] (setting [10]) is recorded as 17.
As for `C#Cc1cccc(Nc2ncnc3cc(OCCOC)c(OCCOC)cc23)c1` [Erlotinib], the M-Score is 21 in assay [4] (Example 13.7: patient, tumor site liver, metastasis) and 14 in assay [4] (Example 13.8: patient, pancreas, T2N0M0, primary).
As for `Nc1ccn([C@@H]2O[C@H](CO)[C@@H](O)C2(F)F)c(=O)n1` [Gemcitabine], in assay [1] (setting [10]), the M-Score is 21.
For the molecule `CC(=O)O[C@H]1C(=O)[C@@]2(C)[C@H]([C@H](OC(=O)c3ccccc3)[C@]3(O)C[C@H](OC(=O)[C@H](O)[C@@H](NC(=O)c4ccccc4)c4ccccc4)C(C)=C1C3(C)C)[C@]1(OC(C)=O)CO[C@@H]1C[C@@H]2O` [Paclitaxel], the M-Score in assay [1] (setting [10]) is recorded as 11.
On to `CNC(=O)c1cc(Oc2ccc(NC(=O)Nc3ccc(Cl)c(C(F)(F)F)c3)cc2)ccn1` [Sorafenib], for which the “"Clinical Response Predictor" analysis suggestion” value is “not an optimal therapeutic option” in assay [5] (Example 13.13: patient, T3NxM1, metastasis) and “an optimal therapeutic option” in assay [5] (setting [11]). In addition, the M-Score in [5] (Example 13.13: patient, T3N×M1, metastasis) is on record as 16; in [5] (setting [11]), 46.
As to `CCN(CC)CCNC(=O)c1c(C)[nH]c(/C=C2\C(=O)Nc3ccc(F)cc32)c1C` [Sunitinib], the M-Score in assay [6] (Example 13.5: patient, pylorus of stomach, metastatic lymph node recc) is 25; in [6] (Example 13.6: patient, stomach, recc) it was 09.
Regarding `Cn1nnc2c(C(N)=O)ncn2c1=O` [Temozolomide], in assay [7], the “Sensitivity Index” value was 49. Besides, the “Clinical readout RECIST” value in assay [8] (Glioblastoma patient) is on record as 2.
Turning to `CCC1=C[C@@H]2CN(C1)Cc1c([nH]c3ccccc13)[C@@](C(=O)OC)(c1cc3c(cc1OC)N(C)[C@H]1[C@@](O)(C(=O)OC)[C@H](OC(C)=O)[C@]4(CC)C=CCN5CC[C@]31[C@@H]54)C2` [Vinorelbine], the M-Score in [1] (setting [10]) is 19. For the same molecule, the “Clinical readout RECIST” value in [8] (Ca-Breast patients) is reported as 2.
With Avastin, the M-Score in [1] (Example 13.18: patient, Breast Cancer with mets, Regional lymph node (Rt Br), T3N1M1, recurrent) is recorded as 18; in assay [1] (Example 13.19: patient, Breast Cancer with SCLN mets, supraclaviculus lymph node, TXNXM2, metastatic) it was 14; in assay [9] (Example 13.15: patient, Colorectum Cancer, perineal mass, T3N0M0, recurrent) it was 20.
As for Panitumumab, the M-Score is 19 in [9] (Example 13.3: patient, Colon Cancer, rectosigmoid colon, Stage IV, metastasis) and 27 in [9] (Example 13.4: patient, Colon Cancer, perineal mass (Ca-Rectum), T3N0M0, Recc).
